Results published in patent US9676721B2, “Compounds and compositions for the inhibition of NAMPT” (FORMA TM, LLC, priority 2010, dated 2017).

Experiments:
NAMPT = NAMPT (Homo sapiens (Human), UniProt P43490); experiment: Biochemical Inhibition Assay (NAMPT enzymatic reaction, NMN by mass spectrometry); conditions: recombinant His-tagged NAMPT 33 nM, 1 μM NAM, 30 minutes; read-out: Biochem IC50
Procedure: Biochemical Inhibition Assay NAMPT Protein Purification Recombinant His-tagged NAMPT was produced in E. coli cells, purified over a Ni column, and further purified over a size-exclusion column by XTAL Biostructures. The NAMPT Enzymatic Reaction The NAMPT enzymatic reactions were carried out in Buffer A (50 mM Hepes pH 7.5, 50 mM NaCl, 5 mM MgCl2, and 1 mM THP) in 96-well V-bottom plates. The compound titrations were performed in a separate dilution plate by serially diluting the compounds in DMSO to make a 100× stock. […] Background and signal strength was determined by addition (or non-addition) of a serial dilution of NMN to a pre-quenched enzyme and cofactor mix. Quantification of NMN A mass spectrometry-based assay was used to measure the NAMPT reaction product (NMN) and the internal control (L-Cystathionine). NMN and L-Cystathionine were detected using the services of Biocius Lifesciences with the RapidFire system. In short, the NMN and L-Cystathionine are bound to a graphitic carbon cartridge in 0.1% formic acid, eluted in 30% acetonitrile buffer, and injected into a Sciex 4000 mass spectrometer. The components of the sample were ionized with electrospray ionization and the positive ions were detected. […] The fragments are quantified and the analyzed by the following method. % Inhibitions are Determined Using this Method. First the NMN signal is normalized to the L-Cystathionine signal by dividing the NMN signal by the L-Cystathionine signal for each well. The signal from the background wells are averaged and subtracted from the test plates. […] IC50s are Determined Using Excel and this Formula.

A2780 cells = experiment: In-Vitro Cell Proliferation Assay (SRB); format: cell-based; conditions: Homo sapiens, A2780, 72 h
Procedure: In-Vitro Cell Proliferation Assay […] After overnight incubation at 37° C. and 5% CO2, the compound titrations were performed in a separate dilution plate by serially diluting the compounds in DMSO to make a 1000× stock. The compounds were then further diluted to 10× final concentration in culture media, whereupon 20 μL of each dilution was added to the plated cells with controls (e.g. DMSO and blank) to make a final volume of 200 μL. The final DMSO concentration in each well was 0.1%. The plates were then incubated for 72 hours at 37° C. in a 5% CO2 incubator. The number of viable cells was then assessed using sulforhodamine B (SRB) assay. Cells were fixed at 4° C. for 1 hour with the addition of 50 μL 30% trichloroacetic acid (TCA) to make a final concentration of 6% TCA. The plates were washed four times with H2O and allowed to dry for at least 1 hour, whereupon 100 μL of a […] SRB in 1% acetic acid solution was added to each well and incubated at room temperature for at least 30 minutes. The plates were then washed three times with 1% acetic acid, dried, and treated with 100 μL of 10 mM Tris-Base solution. The plates were then read in a microplate reader at an absorbance of 570 nm. Background was generated on a separate plate with media only. Method for Determining % Inhibition First, the signals from the background plate are averaged, then the background was subtracted from the test plates. […] Formula for Determining IC50 Values: […] Specificity of Cytotoxicity. Inhibition of NAMPT could be reversed by the addition of NAM or NMN. The specificity of the compounds were determined via cell viability assay in the presence of the compound and either NAM or NMN. Percent inhibitions were determined using the method given above.

NAMPT, sequence (P43490 whole entry): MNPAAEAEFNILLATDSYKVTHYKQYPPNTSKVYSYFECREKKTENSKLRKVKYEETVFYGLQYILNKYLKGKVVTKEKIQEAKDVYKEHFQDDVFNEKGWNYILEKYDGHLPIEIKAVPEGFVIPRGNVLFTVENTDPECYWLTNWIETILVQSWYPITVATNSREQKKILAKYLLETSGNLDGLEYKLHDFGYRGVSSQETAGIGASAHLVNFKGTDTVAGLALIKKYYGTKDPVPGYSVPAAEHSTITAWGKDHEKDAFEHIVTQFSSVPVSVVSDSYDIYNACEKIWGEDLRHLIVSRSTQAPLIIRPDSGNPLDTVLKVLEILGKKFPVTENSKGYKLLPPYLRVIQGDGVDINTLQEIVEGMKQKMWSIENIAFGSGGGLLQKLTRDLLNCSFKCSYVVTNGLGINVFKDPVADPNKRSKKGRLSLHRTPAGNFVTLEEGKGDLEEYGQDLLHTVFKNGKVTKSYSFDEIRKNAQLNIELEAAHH

SMILES | IC50 (NAMPT) | IC50 (A2780 cells)
Cc1cc(C)cc(S(=O)(=O)c2ccc(CNC(=NC#N)Nc3ccncc3)cc2)c1 [2-cyano-1-({4-[(3,5-dimethylbenzene)sulfonyl]phenyl}methyl)-3-(pyridin-4-yl)guanidine] | 3.3 nM | 1.6 nM
Cc1ccc(F)cc1S(=O)(=O)c1ccc(CNC(=NC#N)Nc2ccncc2)cc1 [2-cyano-1-({4-[(5-fluoro-2-methylbenzene)sulfonyl]phenyl}methyl)-3-(pyridin-4-yl)guanidine] | 4.5 nM | 3.3 nM
CN(C)c1ncc(S(=O)(=O)c2ccc(CNC(=NC#N)Nc3ccncc3)cc2)cn1 [2-cyano-1-({4-[2-(dimethylamino)pyrimidine-5-sulfonyl]phenyl}methyl)-3-(pyridin-4-yl)guanidine] | 8.6 nM | 7 nM
Cc1ccncc1S(=O)(=O)c1ccc(CNC(=NC#N)Nc2ccncc2)cc1 [2-cyano-1-{[4-(4-methylpyridine-3-sulfonyl)phenyl]methyl}-3-(pyridin-4-yl)guanidine] | 2.3 nM | 8.5 nM
CC(C)c1ccc(S(=O)(=O)c2ccc(CNC(=NC#N)Nc3ccncc3)cc2)cc1 [2-cyano-1-[(4-{[4-(propan-2-yl)benzene]sulfonyl}phenyl)methyl]-3-(pyridin-4-yl)guanidine] | 3.8 nM | 2.8 nM
COc1cncc(S(=O)(=O)c2ccc(CNC(=NC#N)Nc3ccncc3)cc2)c1 [2-cyano-1-{[4-(5-methoxypyridine-3-sulfonyl)phenyl]methyl}-3-(pyridin-4-yl)guanidine] | 4.3 nM | 9.1 nM
Cc1cc(S(=O)(=O)c2ccc(CNC(=NC#N)Nc3ccncc3)cc2)ccc1F [2-cyano-1-({4-[(4-fluoro-3-methylbenzene)sulfonyl]phenyl}methyl)-3-(pyridin-4-yl)guanidine] | 3.1 nM | 3.9 nM
Cc1ncccc1S(=O)(=O)c1ccc(CNC(=NC#N)Nc2ccncc2)cc1 [2-cyano-1-{[4-(2-methylpyridine-3-sulfonyl)phenyl]methyl}-3-(pyridin-4-yl)guanidine] | 4.8 nM | 7.5 nM
N#CN=C(NCc1ccc(S(=O)(=O)c2cc(F)cc(Cl)c2)cc1)Nc1ccncc1 [1-({4-[(3-chloro-5-fluorobenzene)sulfonyl]phenyl}methyl)-2-cyano-3-(pyridin-4-yl)guanidine] | 5.1 nM | 6.9 nM
CCN(CC)C(=O)c1ccc(F)c(S(=O)(=O)c2ccc(CNC(=NC#N)Nc3ccncc3)cc2)c1 [3-[(4-{[2-cyano-3-(pyridin-4-yl)carbamimidamido]methyl}benzene)sulfonyl]-N,N-diethyl-4-fluorobenzamide] | 17.7 nM | 54.2 nM
N#C/N=C(\NCCc1ccc(S(=O)(=O)c2ccccc2)cc1)Nc1ccncc1 [1-{2-[4-(benzenesulfonyl)phenyl]ethyl}-2-cyano-3-(pyridin-4-yl)guanidine] | 1 nM | 5.3 nM
Cc1ccc(S(=O)(=O)c2ccc(CNC(=NC#N)Nc3ccncc3)cc2)c(C)c1 [2-cyano-1-({4-[(2,4-dimethylbenzene)sulfonyl]phenyl}methyl)-3-(pyridin-4-yl)guanidine] | 2.4 nM | 1.5 nM
N#CN=C(NCc1ccc(S(=O)(=O)c2cc(Cl)cc(Cl)c2)cc1)Nc1ccncc1 [2-cyano-1-({4-[(3,5-dichlorobenzene)sulfonyl]phenyl}methyl)-3-(pyridin-4-yl)guanidine] | 11.2 nM | 1.6 nM
N#CN=C(NCc1ccc(S(=O)(=O)c2ccc(F)c(F)c2)cc1)Nc1ccncc1 [2-cyano-1-({4-[(3,4-difluorobenzene)sulfonyl]phenyl}methyl)-3-(pyridin-4-yl)guanidine] | 0.8 nM | 2.5 nM
CN(C)S(=O)(=O)c1cccc(S(=O)(=O)c2ccc(CNC(=NC#N)Nc3ccncc3)cc2)c1 [2-cyano-1-[(4-{[3-(dimethylsulfamoyl)benzene]sulfonyl}phenyl)methyl]-3-(pyridin-4-yl)guanidine] | 1.3 nM | 6.1 nM
N#CN=C(NCc1ccc(S(=O)(=O)c2cccc(F)c2)cc1)Nc1ccncc1 [2-cyano-1-({4-[(3-fluorobenzene)sulfonyl]phenyl}methyl)-3-(pyridin-4-yl)guanidine] | 3.2 nM | 14.5 nM
Cc1cc(F)ccc1S(=O)(=O)c1ccc(CNC(=NC#N)Nc2ccncc2)cc1 [2-cyano-1-({4-[(4-fluoro-2-methylbenzene)sulfonyl]phenyl}methyl)-3-(pyridin-4-yl)guanidine] | 5.4 nM | 5.4 nM
COc1cc(C(F)(F)F)ccc1S(=O)(=O)c1ccc(CNC(=NC#N)Nc2ccncc2)cc1 [2-cyano-1-[(4-{[2-methoxy-4-(trifluoromethyl)benzene]sulfonyl}phenyl)methyl]-3-(pyridin-4-yl)guanidine] | 5.7 nM | 6 nM
N#CN=C(NCc1ccc(S(=O)(=O)c2ccc(-n3cccn3)cc2)cc1)Nc1ccncc1 [2-cyano-1-[(4-{[4-(1H-pyrazol-1-yl)benzene]sulfonyl}phenyl)methyl]-3-(pyridin-4-yl)guanidine] | 3.3 nM | 3.4 nM
COc1ccc(S(=O)(=O)c2ccc(CNC(=NC#N)Nc3ccncc3)cc2)cc1OC [2-cyano-1-({4-[(3,4-dimethoxybenzene)sulfonyl]phenyl}methyl)-3-(pyridin-4-yl)guanidine] | 4 nM | 3.4 nM
N#CN=C(NCc1ccc(S(=O)(=O)c2cccc(-n3cccn3)c2)cc1)Nc1ccncc1 [2-cyano-1-[(4-{[3-(1H-pyrazol-1-yl)benzene]sulfonyl}phenyl)methyl]-3-(pyridin-4-yl)guanidine] | 3.5 nM | 2.9 nM
CN(C)C(=O)c1cccc(S(=O)(=O)c2ccc(CNC(=NC#N)Nc3ccncc3)cc2)c1 [3-[(4-{[2-cyano-3-(pyridin-4-yl)carbamimidamido]methyl}benzene)sulfonyl]-N,N-dimethylbenzamide] | 3.4 nM | 64 nM
N#CN=C(NCc1ccc(S(=O)(=O)c2cc(F)cc(OCC(F)(F)F)c2)cc1)Nc1ccncc1 [2-cyano-1-[(4-{[3-fluoro-5-(2,2,2-trifluoroethoxy)benzene]sulfonyl}phenyl)methyl]-3-(pyridin-4-yl)guanidine] | 5.3 nM | 1.9 nM
N#CN=C(NCc1ccc(S(=O)(=O)c2cccc3c2OCO3)cc1)Nc1ccncc1 [1-{[4-(2H-1,3-benzodioxole-4-sulfonyl)phenyl]methyl}-2-cyano-3-(pyridin-4-yl)guanidine] |  | 9.4 nM
N#C/N=C(\NCc1ccc(S(=O)(=O)c2ccc(-c3ccccc3)cc2)cc1)Nc1ccncc1 [2-cyano-1-({4-[(4-phenylbenzene)sulfonyl]phenyl}methyl)-3-(p] [2-cyano-1-({4-[(4-phenylbenzene)sulfonyl]phenyl}methyl)-3-(pyridin-4-yl)guanidine] | 3.5 nM | 
N#C/N=C(\NCc1ccc(S(=O)(=O)c2ccc(-c3ccccc3)cc2)cc1)Nc1ccncc1 [2-cyano-1-({4-[(4-phenylbenzene)sulfonyl]phenyl}methyl)-3-(pyridin-4-yl)guanidine] |  | 6.2 nM
N#CN=C(NCc1ccc(S(=O)(=O)c2ccc(-n3cccn3)c(F)c2)cc1)Nc1ccncc1 [2-cyano-1-[(4-{[3-fluoro-4-(1H-pyrazol-1-yl)benzene]sulfonyl}phenyl)methyl]-3-(pyridin-4-yl)guanidine] |  | 9.4 nM
